Laboratory results: patent publication US11564920B2, “5-heteroaryl-1H-pyrazol-3-amine derivative” (Sumitomo Pharma Co., Ltd., priority 2020, dated 2023)
Where two headings read alike, the source gives them in different places.

How the values were obtained:
[1] = tested on: ES-2 cells; test: Cell growth suppression experiment; assay type: cell-based; settings: for IC50: Homo sapiens, 48 h, cultured for 2 days, read-out: IC50 (cell growth suppression, ranking)
Description: ES-2 cells were obtained from the American Type Culture Collection (ATCC). These cells were cultured at 37° C. in the presence of 5% CO2 in a 10% fetal bovine serum, […] penicillin/streptomycin containing McCoy's 5a medium.
500 cells were seeded for each well in a 384-well plate, and the evaluated compound was added so that the final concentration of DMSO would be 0.1% to culture the cells for 2 days. After completion of the culture, the cell viability rate was calculated using CellTiter-Glo® 3D Reagent (Promega, G968B).

[2] = Liposome encapsulation test (Test Example 6); assay type: physicochemical
Description: 6.48 g of hydrogenated soybean phosphatidylcholine (COATSOME NC-21E, NOF Corporation), 2.32 g of cholesterol (Sigma) and 2.06 g of distearoylphosphatidylethanolamine-methoxypolyethylene glycol 2000 (SUNBRIGHT DSPE-020CN, NOF Corporation) were dissolved in 560 mL of t-butyl alcohol heated to 65° C. The solution was frozen with dry ice/acetone bath and t-butyl alcohol was then removed by evaporation under reduced pressure to obtain a lipid mixture.
200 mL of 250 mM ammonium sulfate solution was added to the lipid mixture. The resulting mixture was heated to 65° C. and dispersed with a homogenizer (ULTRA-TURRAX, IKA) to obtain a crude liposome dispersion. […] The prepared amount was increased or decreased appropriately.
2 to 3 mg of the test compound was weighed out. 1 mL of empty liposome solution with a total lipid concentration of 50 mM was added. An aqueous 1 mol/L hydrochloric acid or 1 mol/L sodium hydroxide solution was added to adjust the pH to 5.5 to 7. […] Insolubles, when present, were removed by centrifugation for 5 minutes at 15,000×g.
100 μL of liposome solution was passed through an ultrafiltration filter (Amicon Ultra, 100K, 0.5 mL, Merck), and centrifuged at 4° C. at 15,000×g for 10 minutes. The concentration of the compound in the filtrate after ultrafiltration was measured by HPLC as the unencapsulated compound concentration.
The liposome solution was diluted with a trifluoroacetic acid/water/methanol mixture (0.1/25/75) and was left standing for 10 minutes or longer at 5° C. The solution was centrifuged for 5 minutes at 15,000×g to remove insolubles. The compound concentration in the supernatant was measured by HPLC as the compound concentration in the liposome solution.
The encapsulation ratio and the encapsulation efficiency were calculated by the following equations. Encapsulation ratio (%)=(compound concentration in liposome solution−unencapsulated compound concentration)×100/compound concentration in liposome solution Encapsulation efficiency (%)=(compound concentration in liposome solution−unencapsulated compound concentration)×100/concentration upon compound introduction

[3] = Pharmacokinetic test in mice; assay type: in vivo; settings: female, BALB/c, mouse, whole blood, iv, liposome formulations, 1.0 mg/kg i.v., trapezoidal method
[4] = target: CHK1 (Homo sapiens (Human), UniProt O14757); test: Kinase selectivity test (HotSpot Full Panel Kinase profiling); assay type: biochemical; settings: 100 nM, ATP 10 μM; read-out: Residual activity (%) CHK1
Description: (§1) Buffer: 20 mM HEPES, pH 7.5, 10 mM MgCl2, 2 mM […] (as needed), 1 mM EGTA, 0.02% Brij35, 0.02 mg/mL BSA, 0.1 mM Na3VO4, 2 mM DTT, 1% DMSO
(§2) Compound concentration: 100 nM

[5] = target: hERG current (Homo sapiens (Human), UniProt Q12809); test: cell-based
Description: The test compounds were added to cultured hERG (human Ether-a-go-go Related Gene) gene stably expressing CHO cell line cells to achieve 0.27 to 100 μM.

[6] = target: BRSK1 (Homo sapiens (Human), UniProt Q8TDC3); test: Kinase selectivity test (HotSpot Full Panel Kinase profiling); assay type: biochemical; settings: 100 nM, ATP 10 μM; read-out: Residual activity (%) BRSK1
Description: as §1, §2

[7] = target: BRSK2 (Homo sapiens (Human), UniProt Q8IWQ3); test: as above; assay type: biochemical; settings: 100 nM, ATP 10 μM; read-out: Residual activity (%) BRSK2
Description: as §1, §2

[8] = target: CAMK2D (Homo sapiens (Human), UniProt Q13557); test: as above; assay type: biochemical; settings: 100 nM, ATP 10 μM; read-out: Residual activity (%) CAMK2D
Description: as §1, §2

[9] = target: CHK2 (Homo sapiens (Human), UniProt O96017); test: as above; assay type: biochemical; settings: 100 nM, ATP 10 μM; read-out: Residual activity (%) CHK2
Description: as §1, §2

[10] = target: LOK/STK10 (Homo sapiens (Human), UniProt O94804); test: as above; assay type: biochemical; settings: 100 nM, ATP 10 μM; read-out: Residual activity (%) LOK/STK10
Description: as §1, §2

[11] = target: MARK1 (Homo sapiens (Human), UniProt Q9P0L2); test: as above; assay type: biochemical; settings: 100 nM, ATP 10 μM; read-out: Residual activity (%) MARK1
Description: as §1, §2

[12] = target: MARK2/PAR-1BA (Homo sapiens (Human), UniProt Q7KZI7); test: as above; assay type: biochemical; settings: 100 nM, ATP 10 μM; read-out: Residual activity (%) MARK2/PAR-1BA (PAR-18A in Table 33)
Description: as §1, §2

[13] = target: MARK3 (Homo sapiens (Human), UniProt P27448); test: as above; assay type: biochemical; settings: 100 nM, ATP 10 μM; read-out: Residual activity (%) MARK3
Description: as §1, §2

[14] = target: CDK19/CYCLIN C (Homo sapiens (Human), UniProt Q9BWU1); test: as above; assay type: biochemical; settings: 100 nM, ATP 10 μM; read-out: Residual activity (%) CDK19/CYCLIN C
Description: as §1
(§3) ATP conversion rate in 2 hours: 5 to 20%
as §2

[15] = target: GLK/MAP4K3 (Homo sapiens (Human), UniProt Q8IVH8); test: as above; assay type: biochemical; settings: 100 nM, ATP 10 μM; read-out: Residual activity (%) GLK/MAP4K3
Description: as §1, §3, §2

[16] = target: LRRK2 (Homo sapiens (Human), UniProt Q5S007); test: as above; assay type: biochemical; settings: 100 nM, ATP 10 μM; read-out: Residual activity (%) LRRK2
Description: as §1, §3, §2

[17] = target: MEK5 (Homo sapiens (Human), UniProt Q13163); test: as above; assay type: biochemical; settings: 100 nM, ATP 10 μM; read-out: Residual activity (%) MEK5
Description: as §1, §3, §2

[18] = target: SIK1 (Homo sapiens (Human), UniProt P57059); test: as above; assay type: biochemical; settings: 100 nM, ATP 10 μM; read-out: Residual activity (%) SIK1
Description: as §1, §3, §2

Chain of CHK2 (O96017 whole entry): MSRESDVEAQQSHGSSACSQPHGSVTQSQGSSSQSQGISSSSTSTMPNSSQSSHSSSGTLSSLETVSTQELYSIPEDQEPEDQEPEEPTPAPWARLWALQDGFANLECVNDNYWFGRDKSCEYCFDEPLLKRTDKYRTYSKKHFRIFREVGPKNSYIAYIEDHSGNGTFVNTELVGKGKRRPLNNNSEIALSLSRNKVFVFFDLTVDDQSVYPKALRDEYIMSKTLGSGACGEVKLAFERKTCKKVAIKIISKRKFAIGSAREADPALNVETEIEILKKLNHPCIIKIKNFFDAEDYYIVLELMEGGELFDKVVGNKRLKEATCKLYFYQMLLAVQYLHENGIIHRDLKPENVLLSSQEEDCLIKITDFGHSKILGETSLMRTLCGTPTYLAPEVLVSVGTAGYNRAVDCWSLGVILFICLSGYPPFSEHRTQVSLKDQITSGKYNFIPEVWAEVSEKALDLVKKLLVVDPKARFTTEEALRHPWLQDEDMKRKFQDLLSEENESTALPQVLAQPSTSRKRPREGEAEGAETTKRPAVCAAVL
Chain of MARK3 (P27448 whole entry): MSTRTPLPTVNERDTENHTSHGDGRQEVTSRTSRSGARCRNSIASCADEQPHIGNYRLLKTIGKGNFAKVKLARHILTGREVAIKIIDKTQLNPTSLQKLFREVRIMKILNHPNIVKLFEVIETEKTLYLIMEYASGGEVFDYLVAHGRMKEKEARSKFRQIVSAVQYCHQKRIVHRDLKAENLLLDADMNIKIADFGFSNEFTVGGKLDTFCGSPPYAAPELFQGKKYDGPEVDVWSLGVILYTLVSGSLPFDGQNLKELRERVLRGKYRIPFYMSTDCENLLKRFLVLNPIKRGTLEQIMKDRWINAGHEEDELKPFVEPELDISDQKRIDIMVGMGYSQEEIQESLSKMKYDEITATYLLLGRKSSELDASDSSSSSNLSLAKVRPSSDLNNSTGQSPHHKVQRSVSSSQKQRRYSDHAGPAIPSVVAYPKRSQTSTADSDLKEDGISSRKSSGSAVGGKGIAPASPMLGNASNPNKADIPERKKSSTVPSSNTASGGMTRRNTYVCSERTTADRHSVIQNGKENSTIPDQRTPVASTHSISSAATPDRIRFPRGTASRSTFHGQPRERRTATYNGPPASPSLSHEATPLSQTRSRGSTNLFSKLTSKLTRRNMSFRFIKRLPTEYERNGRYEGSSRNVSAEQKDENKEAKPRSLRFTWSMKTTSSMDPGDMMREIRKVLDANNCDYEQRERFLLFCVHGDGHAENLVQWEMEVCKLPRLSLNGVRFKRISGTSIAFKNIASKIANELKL
Chain of MEK5 (Q13163 whole entry): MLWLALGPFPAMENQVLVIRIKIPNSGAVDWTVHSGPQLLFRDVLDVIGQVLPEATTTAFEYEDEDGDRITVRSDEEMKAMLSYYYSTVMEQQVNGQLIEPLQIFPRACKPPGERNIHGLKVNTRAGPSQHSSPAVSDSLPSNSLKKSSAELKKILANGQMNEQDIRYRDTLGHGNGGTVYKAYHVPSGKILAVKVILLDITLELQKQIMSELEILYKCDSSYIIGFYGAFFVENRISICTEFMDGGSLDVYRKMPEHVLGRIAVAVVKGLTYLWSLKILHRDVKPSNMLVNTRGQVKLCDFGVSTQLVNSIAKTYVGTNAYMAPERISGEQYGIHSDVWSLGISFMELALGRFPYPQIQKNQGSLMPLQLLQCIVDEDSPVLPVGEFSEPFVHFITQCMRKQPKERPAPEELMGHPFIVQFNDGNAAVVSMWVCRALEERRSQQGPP
Chain of MARK1 (Q9P0L2 whole entry): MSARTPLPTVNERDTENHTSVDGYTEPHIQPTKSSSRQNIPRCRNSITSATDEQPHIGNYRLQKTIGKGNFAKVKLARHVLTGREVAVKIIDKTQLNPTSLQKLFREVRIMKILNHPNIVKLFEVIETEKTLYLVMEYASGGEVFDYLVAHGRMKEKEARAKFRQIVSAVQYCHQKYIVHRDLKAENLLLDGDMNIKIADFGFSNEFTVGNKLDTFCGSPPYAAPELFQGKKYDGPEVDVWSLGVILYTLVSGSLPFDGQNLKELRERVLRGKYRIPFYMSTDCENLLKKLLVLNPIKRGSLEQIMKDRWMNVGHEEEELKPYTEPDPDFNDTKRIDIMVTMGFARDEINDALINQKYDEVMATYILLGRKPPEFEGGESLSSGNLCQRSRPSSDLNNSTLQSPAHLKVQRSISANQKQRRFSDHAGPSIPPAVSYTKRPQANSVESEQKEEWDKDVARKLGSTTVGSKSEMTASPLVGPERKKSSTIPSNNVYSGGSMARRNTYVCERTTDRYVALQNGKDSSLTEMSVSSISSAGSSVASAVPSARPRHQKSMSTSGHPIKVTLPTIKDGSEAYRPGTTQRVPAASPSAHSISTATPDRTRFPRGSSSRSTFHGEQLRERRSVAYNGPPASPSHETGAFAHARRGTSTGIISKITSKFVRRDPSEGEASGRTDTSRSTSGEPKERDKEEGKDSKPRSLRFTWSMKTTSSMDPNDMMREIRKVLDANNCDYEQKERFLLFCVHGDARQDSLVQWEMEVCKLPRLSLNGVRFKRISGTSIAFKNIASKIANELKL
Chain of CDK19/CYCLIN C (Q9BWU1 whole entry): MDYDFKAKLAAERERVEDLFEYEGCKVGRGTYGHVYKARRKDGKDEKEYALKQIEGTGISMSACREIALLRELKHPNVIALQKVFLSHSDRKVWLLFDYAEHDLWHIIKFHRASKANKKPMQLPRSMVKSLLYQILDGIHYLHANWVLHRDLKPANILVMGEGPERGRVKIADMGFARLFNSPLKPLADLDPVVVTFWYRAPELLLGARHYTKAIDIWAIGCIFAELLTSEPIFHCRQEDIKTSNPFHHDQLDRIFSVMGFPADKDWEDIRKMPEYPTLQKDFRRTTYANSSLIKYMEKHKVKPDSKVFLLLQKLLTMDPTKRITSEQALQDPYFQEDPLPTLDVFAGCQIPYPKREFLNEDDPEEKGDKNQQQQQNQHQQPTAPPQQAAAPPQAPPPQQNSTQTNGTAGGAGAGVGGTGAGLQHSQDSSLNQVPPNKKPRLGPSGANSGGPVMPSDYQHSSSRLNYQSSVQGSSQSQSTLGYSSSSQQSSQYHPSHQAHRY
Chain of CDK19/CYCLIN C (P24863 whole entry partner): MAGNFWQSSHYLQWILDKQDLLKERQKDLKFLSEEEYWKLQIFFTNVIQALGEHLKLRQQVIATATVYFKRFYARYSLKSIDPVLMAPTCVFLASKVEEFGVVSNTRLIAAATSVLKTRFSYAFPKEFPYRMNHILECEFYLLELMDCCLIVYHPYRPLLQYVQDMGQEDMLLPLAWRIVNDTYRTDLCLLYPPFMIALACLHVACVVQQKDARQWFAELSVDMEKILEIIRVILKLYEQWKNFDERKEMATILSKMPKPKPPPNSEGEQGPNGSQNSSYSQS
Chain of SIK1 (P57059 whole entry): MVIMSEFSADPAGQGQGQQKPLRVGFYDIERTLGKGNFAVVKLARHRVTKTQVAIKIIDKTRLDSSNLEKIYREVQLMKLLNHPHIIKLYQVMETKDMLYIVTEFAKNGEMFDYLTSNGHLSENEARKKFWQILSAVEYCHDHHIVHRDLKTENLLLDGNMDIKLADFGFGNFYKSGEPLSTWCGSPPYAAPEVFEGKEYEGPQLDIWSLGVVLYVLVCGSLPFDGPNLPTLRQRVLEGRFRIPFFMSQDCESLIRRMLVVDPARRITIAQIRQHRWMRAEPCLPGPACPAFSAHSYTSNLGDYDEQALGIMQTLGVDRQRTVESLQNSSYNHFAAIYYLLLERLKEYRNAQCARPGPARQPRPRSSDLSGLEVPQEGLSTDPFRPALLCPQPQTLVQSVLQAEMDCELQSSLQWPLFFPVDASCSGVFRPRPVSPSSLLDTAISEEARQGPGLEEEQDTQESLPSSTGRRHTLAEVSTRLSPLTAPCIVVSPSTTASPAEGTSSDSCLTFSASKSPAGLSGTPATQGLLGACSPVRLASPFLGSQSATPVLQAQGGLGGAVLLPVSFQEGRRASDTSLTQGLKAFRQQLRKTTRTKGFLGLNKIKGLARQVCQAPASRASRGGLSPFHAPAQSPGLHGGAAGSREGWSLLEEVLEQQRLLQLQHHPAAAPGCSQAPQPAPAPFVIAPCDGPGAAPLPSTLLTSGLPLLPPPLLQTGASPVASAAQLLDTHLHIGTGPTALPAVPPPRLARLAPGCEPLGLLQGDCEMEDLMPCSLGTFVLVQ
Chain of BRSK2 (Q8IWQ3 whole entry): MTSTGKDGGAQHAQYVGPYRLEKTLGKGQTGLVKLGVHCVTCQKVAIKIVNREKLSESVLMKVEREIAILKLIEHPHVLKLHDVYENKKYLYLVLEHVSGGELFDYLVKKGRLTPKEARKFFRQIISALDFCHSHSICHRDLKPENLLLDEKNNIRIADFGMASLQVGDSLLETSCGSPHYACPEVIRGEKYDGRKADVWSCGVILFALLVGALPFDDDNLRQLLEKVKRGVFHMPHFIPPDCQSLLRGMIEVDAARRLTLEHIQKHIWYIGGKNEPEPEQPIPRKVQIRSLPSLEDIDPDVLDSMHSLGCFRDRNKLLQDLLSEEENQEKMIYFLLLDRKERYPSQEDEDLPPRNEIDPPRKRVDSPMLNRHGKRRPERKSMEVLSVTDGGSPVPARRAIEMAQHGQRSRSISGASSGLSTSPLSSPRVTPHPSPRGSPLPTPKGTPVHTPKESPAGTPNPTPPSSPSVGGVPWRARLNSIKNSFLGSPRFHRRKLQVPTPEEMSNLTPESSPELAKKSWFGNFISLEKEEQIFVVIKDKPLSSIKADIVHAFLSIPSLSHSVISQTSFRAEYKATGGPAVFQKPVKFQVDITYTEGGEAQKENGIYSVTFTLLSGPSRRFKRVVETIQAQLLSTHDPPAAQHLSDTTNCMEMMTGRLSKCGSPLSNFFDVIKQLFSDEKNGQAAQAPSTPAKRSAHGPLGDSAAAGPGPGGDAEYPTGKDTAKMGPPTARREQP

## COc1ccnc(OCCCN)c1-c1cc(Nc2cnc(C#N)cn2)n[nH]1 [Example 1, 5-({5-[2-(3-aminopropoxy)-4-methoxypyridin-3-yl]-1H-pyrazol-3-yl}amino)pyrazine-2-carbonitrile]
[1]
  IC50: < 0.03 µM
[1]; compared with prexasertib
  cell growth suppression effect (in words): excellent cell growth suppression effect that is equivalent to that of prexasertib
[2]
  Encapsulation efficiency: ≥ 80%
[2]; concentration upon compound introduction 3 mg/mL
  Encapsulation efficiency: 87.4%
[2]; pH adjusted by adding 1 mol/L hydrochloric acid
  liquid viscosity during the liposome encapsulation procedure: increase in viscosity was not found
[3]
  AUC(0-t): 447 µg·h/mL
[4]
  remaining activity at 0.1 µM: 2.87%
[5]
  IC50: 11.5 µM

## COc1cccc(OCCCN)c1-c1cc(Nc2cnc(C#N)cn2)n[nH]1 [Prexasertib, reference compound]
[1]
  IC50: < 0.03 µM
[2]; concentration upon compound introduction 2 mg/mL
  Compound concentration in liposome solution: 2160 µg/mL
[3]
  AUC(0-t): 236 µg·h/mL
[6]
  remaining activity at 0.1 µM: 21.7%
[7]
  remaining activity at 0.1 µM: 14.4%
[8]
  remaining activity at 0.1 µM: 6.07%
[9]
  remaining activity at 0.1 µM: 6.41%
[10]
  remaining activity at 0.1 µM: 6.15%
[11]
  remaining activity at 0.1 µM: 14.1%
[12]
  remaining activity at 0.1 µM: 14.3%
[13]
  remaining activity at 0.1 µM: 12.6%
[14]
  remaining activity at 0.1 µM: 19.9%
[15]
  remaining activity at 0.1 µM: 20.8%
[16]
  remaining activity at 0.1 µM: 23.5%
[17]
  remaining activity at 0.1 µM: 10.7%
[18]
  remaining activity at 0.1 µM: 11.9%
